Read-outs that look alike come from different tables or passages of the source.
Legend:
[1] = tested on: cultured human mast cells (CHMC); assay: CHMC low cell density IgE activation: tryptase assay; assay type: cell-based; details: Homo sapiens, Mast cell, low cell density CHMC, IgE activation
In short: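 Tryptase release was read from supernatant with a fluorogenic substrate (30 min, room temperature) after anti-IgE challenge of cultured human mast cells (1000–1500 cells/well, low density) for 30 minutes at 37° C.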

Syk kinase = target: T1, Syk kinase (Homo sapiens, UniProt P43405); assay: Syk kinase biochemical fluorescence polarization assay; details: isolated Syk kinase, read-out: fp_syk, 11 pt
T1 construct: purchased Upstate, Lake Placid N.Y
Description: Many of the 2,4-pyrimidinediamine compounds were tested for the ability to inhibit Syk kinase catalyzed phosphorylation of a peptide substrate in a biochemical fluorescenced polarization assay with isolated Syk kinase. In this experiment, Compounds were diluted to 1% DMSO in kinase buffer (20 mM HEPES, pH 7.4, 5 mM MgCl2, 2 mM MnCl2, 1 mM DTT, 0.1 mg/mL acetylated Bovine Gamma Globulin). Compound in 1% DMSO (0.2% DMSO final) was mixed with ATP/substrate solution at room temperature. Syk kinase (Upstate, Lake Placid N.Y.) was added to a final reaction volume of 20 uL, and the reaction was incubated for 30 minutes at room temperature. […] EDTA (10 mM final)/anti-phosphotyrosine antibody (1× final)/fluorescent phosphopeptide tracer (0.5× final) was added in FP Dilution Buffer to stop the reaction for a total volume of 40 uL according to manufacturer's instructions (PanVera Corporation) The plate was incubated for 30 minutes in the dark at room temperature. Plates were read on a Polarion fluorescence polarization plate reader (Tecan). Data were converted to amount of phosphopeptide present using a calibration curve generated by competition with the phosphopeptide competitor provided in the Tyrosine Kinase Assay Kit, Green (PanVera Corporation).

[2] = tested on: cultured human mast cells (CHMC); assay: CHMC low cell density ionomycin activation: tryptase assay; assay type: cell-based; details: Homo sapiens, Mast cell, low cell density CHMC, read-out: LD Tryptase, CHMC, Iono, 3 pt
[3] = tryptase, 3 pt, read-out: LD Tryptase, CHMC, IgE, 3 pt
[4] = tryptase, 8 pt, read-out: LD Tryptase, CHMC, IgE, 8 pt
[5] = tryptase release, 3 pt, read-out: LD Tryptase, CHMC, IgE, 3 pt
[6] = tryptase release, 8 pt, read-out: LD Tryptase, CHMC, IgE, 8 pt

Row | Compound | IC50 [1, 3] | IC50 [1, 4] | IC50 (Syk kinase; 11 pt) | IC50 ([2]; tryptase, 3 pt) | IC50 [1, 5] | IC50 [1, 6] | IC50 ([2]; tryptase release, 3 pt) | further results
1 | COc1ccc(N(C)c2nc(Nc3cccc(-c4ncco4)c3)ncc2F)cc1OC [Compound 439, N4-(3,4-Dimethoxyphenyl)-5-fluoro-N4-methyl-N2-[3-(oxazol-2-yl)phenyl]-2,4-pyrimidinediamine] | < 10 µM | < 10 µM | > 10 µM | > 10 µM |  |  |  | 
2 | CNC(=O)COc1ccc(Nc2nc(Nc3ccc4ccn(CC(=O)NC)c4c3)ncc2F)cc1Cl [Compound 648, N4-[3-Chloro-4-(N-methylamino)carbonylmethyleneoxyphenyl]-5-fluoro-N2-[1-(N-methylamino)carbonylmethyleneindol-6-yl]-2,4-pyrimidinediamine] |  |  |  |  |  |  |  | IC50 ([1]; tryptase release, 3 point, read-out: LD Tryptase, CHMC, IgE, 3 pt): < 10 µM; IC50 ([1]; tryptase release, 8 point, read-out: LD Tryptase, CHMC, IgE, 8 pt): < 10 µM; IC50 (Syk kinase; 11 point): < 10 µM; IC50 ([2]; tryptase release, 3 point): > 10 µM
3 | COCCCn1ncc2cc(Nc3ncc(F)c(Nc4ccc(OC)c(Cl)c4)n3)ccc21 [Compound 792, N4-(3-Chloro-4-methoxyphenyl)-5-fluoro-N2-[1-(3-methoxypropyl)indazol-5-yl]-2,4-pyrimidinediamine] |  |  | < 10 µM |  | < 10 µM | < 10 µM | > 10 µM | 
4 | COc1ccc(Nc2nc(Nc3ccc4[nH]c(C(F)(F)F)nc4c3)ncc2F)cc1Cl [Compound 800, N4-(3-Chloro-4-methoxyphenyl)-5-fluoro-N2-(2-trifluoromethyl-1H-benzimidazol-5-yl)-2,4-pyrimidinediamine] |  |  | < 10 µM |  | < 10 µM | < 10 µM | < 10 µM | 
5 | Fc1cnc(Nc2ccc3[nH]c(C(F)(F)F)nc3c2)nc1Nc1ccc(Cl)c(Cl)c1 [Compound 801, N4-(3,4-Dichlorophenyl)-5-fluoro-N2-(2-trifluoromethyl-1H-benzimidazol-5-yl)-2,4-pyrimidinediamine] |  |  | < 10 µM |  | < 10 µM | < 10 µM | < 10 µM | 
6 | COc1ccc(Nc2nc(Nc3ccc4nc(C)[nH]c4c3)ncc2F)cc1Cl [Compound 808, N4-(3-Chloro-4-methoxyphenyl)-5-fluoro-N2-(2-methyl-3H-benzimidazol-5-yl)-2,4-pyrimidinediamine] |  |  | < 10 µM |  | < 10 µM | < 10 µM | > 10 µM | 
7 | Cc1nc2ccc(Nc3ncc(F)c(Nc4ccc(Cl)c(Cl)c4)n3)cc2[nH]1 [Compound 809, N4-(3,4-Dichlorophenyl)-5-fluoro-N2-(2-methyl-3H-benzimidazol-5-yl)-2,4-pyrimidinediamine] |  |  | < 10 µM |  | < 10 µM | < 10 µM | > 10 µM | 
8 | COc1c(C)cc(Nc2ncc(F)c(Nc3cccc(NC4=NCCN4)c3)n2)cc1C [Compound 1093] |  |  | < 10 µM |  |  |  |  | IC50 ([1]; tryptase readout, 3 pt, read-out: LD Tryptase, CHMC, IgE, 3 pt): < 10 µM; IC50 ([1]; tryptase readout, 8 pt, read-out: LD Tryptase, CHMC, IgE, 8 pt): < 10 µM; IC50 ([2]; tryptase readout, 3 pt): > 10 µM
9 | Fc1cnc(Nc2cccc(-c3ncco3)c2)nc1Nc1cc(C2CC2)n[nH]1 [Compound 1144, N4-(3-Cyclopropyl-1H-pyrazol-5-yl)-5-fluoro-N2-[3-(oxazol-2-yl)phenyl]-2,4-pyrimidinediamine] | < 10 µM | < 10 µM | < 10 µM | > 10 µM |  |  |  | 
10 | CN1CCN(c2ccc(Nc3ncc(F)c(N(C)C4CCC4)n3)cc2)CC1 [Compound 1147, N4-Cyclobutyl-5-fluoro-N4-methyl-N2-[4-(4-methylpiperazino)phenyl]-2,4-pyrimidinediamine] | < 10 µM | < 10 µM | < 10 µM | > 10 µM |  |  |  | 
11 | CN1CCN(c2ccc(Nc3ncc(F)c(NC4CCCCC4)n3)cc2)CC1 [Compound 1164, N4-Cyclohexyl-5-fluoro-N2-[4-(4-methylpiperazino)phenyl]-2,4-pyrimidinediamine] | < 10 µM |  | < 10 µM | > 10 µM |  |  |  | 
12 | O=C(Nc1ccc(Nc2ncc(F)c(NC3CCCCC3)n2)cc1)c1ccccc1 [Compound 1174, N2-(4-Benzamidophenyl)-N4-cyclohexyl-5-fluoro-2,4-pyrimidinediamine] | > 10 µM | < 10 µM | < 10 µM | > 10 µM |  |  |  | 

Reference: patent publication US20220073536A1 (Rigel Pharmaceuticals, Inc., priority 2003, published 2022)
